The source of these data is ChEMBL document CHEMBL1134880, “Quantum chemical- and 3-D-QSAR (CoMFA) studies of benzalacetones and 1,1,1-trifluoro-4-phenyl-3-buten-2-ones” (Bioorg Med Chem Lett, 2002).

The subject of the assay is Escherichia coli. The assay is described as follows: Inhibition of UV-induced mutagenesis in Escherichia coli WP2uvrA. Format: functional, organism-based.
Turning to `CC(=O)/C=C/c1ccc(O)cc1`, the IC50 (commonly the concentration that gives 50% inhibition) was 1200 µM.
The figure for `CC(=O)/C=C/c1cccc([N+](=O)[O-])c1` is 151 µM; for `COc1cccc(/C=C/C(C)=O)c1` it is 708 µM.
The figure for `N#Cc1cccc(/C=C/C(=O)C(F)(F)F)c1` is 17 µM.
For `CC(=O)/C=C/c1cccc(Br)c1`, inhibition was half-maximal at 407 µM (IC50).
For `CC(=O)/C=C/c1cccc(C(F)(F)F)c1`, the IC50 was 219 µM.
As to `COc1ccc(/C=C/C(=O)C(F)(F)F)cc1`, the IC50 was 74.1 µM.
The figure for `CC(=O)/C=C/c1ccc(Br)cc1` is 525 µM; for `O=C(/C=C/c1cccc(Cl)c1)C(F)(F)F` it is 24 µM; for `CC(=O)/C=C/c1ccc(C#N)cc1` it is 170 µM.
The figure for `CC(=O)/C=C/c1ccccc1F` is 339 µM; for `COc1cccc(/C=C/C(C)=O)c1O` it is 676 µM; for `CC(=O)/C=C/c1cccc(F)c1` it is 257 µM.
The figure for `CC(=O)/C=C/c1ccc(F)cc1` is 631 µM; for `O=C(/C=C/c1ccccc1)C(F)(F)F` it is 30.2 µM; for `CC(=O)/C=C/c1cccc(C)c1` it is 1510 µM.
In turn, `CC(=O)/C=C/c1ccc(C)cc1` gave an IC50 of 1580 µM.
The figure for `CC(=O)/C=C/c1ccc(Cl)cc1` is 324 µM.
The figure for `O=C(/C=C/c1ccc(Cl)cc1)C(F)(F)F` is 15.8 µM.
The figure for `CC(=O)/C=C/c1ccccc1O` is 229 µM; for `CC(=O)/C=C/c1cccc(C#N)c1` it is 282 µM.
As to `O=C(/C=C/c1cccc([N+](=O)[O-])c1)C(F)(F)F`, it took 17 µM to reach half-maximal inhibition (IC50).
The figure for `CC(=O)/C=C/c1ccc(C(F)(F)F)cc1` is 110 µM; for `CCc1ccc(/C=C/C(C)=O)cc1` it is 1200 µM; for `CC(=O)/C=C/c1ccc([N+](=O)[O-])cc1` it is 83.2 µM.
The figure for `CC(=O)/C=C/c1cccc(Cl)c1` is 427 µM; for `CC(=O)/C=C/c1ccccc1Br` it is 398 µM.
For the molecule `CC(=O)/C=C/c1ccc(O)c(O)c1`, it took 977 µM to reach half-maximal inhibition (IC50).
The figure for `CC(=O)/C=C/c1ccccc1Cl` is 525 µM; for `COc1ccc(/C=C/C(C)=O)cc1` it is 1580 µM.
The figure for `CC(=O)/C=C/c1cccc(C)c1O` is 240 µM; for `CC(=O)/C=C/c1cc(C)c(O)c(C)c1` it is 1100 µM.
The figure for `N#Cc1ccc(/C=C/C(=O)C(F)(F)F)cc1` is 25.1 µM; for `O=C(/C=C/c1ccccc1Cl)C(F)(F)F` it is 28.2 µM; for `CCOc1cccc(/C=C/C(C)=O)c1O` it is 1200 µM.
